Results on twelve molecules are retold here after ChEMBL document CHEMBL4184089 (Bioorg Med Chem Lett, 2018).

Molecules are shown by their SMILES.

Assay [1] addresses Sphingosine 1-phosphate receptor 1 (Homo sapiens, UniProt P21453). The experiment in a line: Displacement of [32P]S1P from recombinant human S1PR1 expressed in CHOK1 cell membranes pretreated for 30 mins followed by [32P]S1P addition measured after 60 mins by scintillation counting method.
The target of assay [2] is Sphingosine 1-phosphate receptor 3 (Homo sapiens, UniProt Q99500). Description: Displacement of [32P]S1P from recombinant human S1PR3 expressed in Chem1 cell membranes co-expressing Galpha15 pretreated for 30 mins followed by [32P]S1P addition measured after 60 mins by scintillation counting method.
Sphingosine 1-phosphate receptor 3, sequence (Q99500 whole entry): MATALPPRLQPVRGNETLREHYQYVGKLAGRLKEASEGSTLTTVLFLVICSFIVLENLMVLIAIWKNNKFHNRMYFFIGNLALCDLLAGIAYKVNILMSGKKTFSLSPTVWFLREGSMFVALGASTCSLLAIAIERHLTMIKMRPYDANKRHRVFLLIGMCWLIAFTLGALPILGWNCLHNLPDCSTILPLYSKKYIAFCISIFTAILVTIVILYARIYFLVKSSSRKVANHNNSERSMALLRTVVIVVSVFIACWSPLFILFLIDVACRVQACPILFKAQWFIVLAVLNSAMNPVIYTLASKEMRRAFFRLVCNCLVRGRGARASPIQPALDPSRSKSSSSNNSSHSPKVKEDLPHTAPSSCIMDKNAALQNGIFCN
Assay [3] concerns the target Sphingosine 1-phosphate receptor 2 (Homo sapiens, UniProt O95136). The experiment in a line: Displacement of [32P]S1P from recombinant human S1PR2 expressed in Chem1 cell membranes co-expressing Galpha15 pretreated for 30 mins followed by [32P]S1P addition measured after 60 mins by scintillation counting method.
In assay [4] the target is T1, Sphingosine 1-phosphate receptor 4 (Homo sapiens, UniProt O95977).
T1 sequence (O95977 whole entry): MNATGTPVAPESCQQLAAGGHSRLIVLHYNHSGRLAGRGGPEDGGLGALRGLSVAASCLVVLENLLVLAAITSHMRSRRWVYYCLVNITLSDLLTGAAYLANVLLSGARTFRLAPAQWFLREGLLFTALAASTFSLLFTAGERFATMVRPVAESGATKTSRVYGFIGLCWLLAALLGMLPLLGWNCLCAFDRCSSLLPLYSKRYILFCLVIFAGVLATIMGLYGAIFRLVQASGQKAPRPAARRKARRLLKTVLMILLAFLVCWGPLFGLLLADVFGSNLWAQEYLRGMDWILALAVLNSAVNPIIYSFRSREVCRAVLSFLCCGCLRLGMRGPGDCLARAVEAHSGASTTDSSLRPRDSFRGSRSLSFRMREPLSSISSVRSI
The experiment in a line: Displacement of [32P]S1P from recombinant human S1PR4 expressed in cell membranes pretreated for 30 mins followed by [32P]S1P addition measured after 60 mins by scintillation counting method.

Assay [5] concerns the target Sphingosine 1-phosphate receptor 5 (Homo sapiens, UniProt Q9H228). The experiment in a line: Displacement of [32P]S1P from recombinant human S1PR5 expressed in cell membranes pretreated for 30 mins followed by [32P]S1P addition measured after 60 mins by scintillation counting method.

Sphingosine 1-phosphate receptor 2, sequence (O95136 whole entry): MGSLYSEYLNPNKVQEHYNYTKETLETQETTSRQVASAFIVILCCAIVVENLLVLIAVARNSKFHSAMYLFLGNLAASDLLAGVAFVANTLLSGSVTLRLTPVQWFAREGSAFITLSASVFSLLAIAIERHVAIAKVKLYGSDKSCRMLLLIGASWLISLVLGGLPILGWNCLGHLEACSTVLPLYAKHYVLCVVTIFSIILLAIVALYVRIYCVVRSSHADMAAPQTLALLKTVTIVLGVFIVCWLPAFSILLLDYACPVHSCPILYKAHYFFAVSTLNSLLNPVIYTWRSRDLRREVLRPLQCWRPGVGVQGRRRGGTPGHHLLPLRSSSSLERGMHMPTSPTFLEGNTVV
Sphingosine 1-phosphate receptor 1, sequence (P21453 whole entry): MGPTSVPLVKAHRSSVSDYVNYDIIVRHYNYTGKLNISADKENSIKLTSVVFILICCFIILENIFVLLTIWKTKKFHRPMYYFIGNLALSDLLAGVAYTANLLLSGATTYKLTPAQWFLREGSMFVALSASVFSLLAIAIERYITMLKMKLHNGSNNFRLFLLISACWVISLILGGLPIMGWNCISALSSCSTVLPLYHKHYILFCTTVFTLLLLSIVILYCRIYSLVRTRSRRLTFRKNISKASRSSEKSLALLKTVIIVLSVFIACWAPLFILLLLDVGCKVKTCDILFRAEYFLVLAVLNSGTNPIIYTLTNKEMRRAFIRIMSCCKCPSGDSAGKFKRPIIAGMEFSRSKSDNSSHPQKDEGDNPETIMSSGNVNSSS
Sphingosine 1-phosphate receptor 5, sequence (Q9H228 whole entry): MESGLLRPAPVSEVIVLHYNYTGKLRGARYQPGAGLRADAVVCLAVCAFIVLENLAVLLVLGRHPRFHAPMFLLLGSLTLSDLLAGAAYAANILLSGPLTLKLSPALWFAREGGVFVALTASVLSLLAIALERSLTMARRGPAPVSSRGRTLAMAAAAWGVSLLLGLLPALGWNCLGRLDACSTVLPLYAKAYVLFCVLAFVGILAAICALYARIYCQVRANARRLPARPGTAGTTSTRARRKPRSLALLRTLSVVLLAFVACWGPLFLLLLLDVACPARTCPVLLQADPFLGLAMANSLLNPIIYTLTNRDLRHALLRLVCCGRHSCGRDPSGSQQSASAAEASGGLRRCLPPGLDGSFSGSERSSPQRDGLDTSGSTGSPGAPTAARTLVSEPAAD

In general, IC50 refers to the concentration at which inhibition is half-maximal. With `Cc1nn(C)c2nc(NNC(=O)Nc3cc(Cl)nc(Cl)c3)cc(C(C)C)c12`, the IC50 in assay [1] and in assay [2] was more than 1000 nM in each case.

Regarding `COc1cc(-c2nc(-c3cc(C(C)C)c4c(C)nn(C)c4n3)no2)cc(Cl)n1`, the IC50 in assay [3] was more than 1000 nM.

Consider `Cc1nn(C)c2nc(NNC(=O)Nc3cc(Cl)nc(OCC4CC4)c3)cc(C(C)C)c12`, for which the IC50 is 56.5 nM in assay [3]; more than 1000 nM in assay [1]; more than 1000 nM in assay [2]; more than 1000 nM in assay [4]; more than 1000 nM in assay [5].

As for `Cc1nn(C)c2nc(C(=O)NC(=O)Nc3cc(Cl)nc(Cl)c3)cc(C(F)(F)F)c12`, in assay [3], the IC50 was more than 1000 nM.

Regarding `COc1cc(NC(=O)NC(=O)c2cc(C(C)C)c3c(n2)c(C)nn3C)cc(Cl)n1`, the IC50 in assay [3] was more than 1000 nM.

Take `Cc1nn(C)c2nc(NNC(=O)Nc3cc(Cl)n4ccnc4c3)cc(C(C)C)c12`: in assay [3], the IC50 was more than 1000 nM.

On to `Cc1n[nH]c2nc(C(=O)NC(=O)Nc3cc(Cl)nc(Cl)c3)cc(C(F)(F)F)c12`, for which the IC50 in assay [3] is more than 1000 nM.

`Cc1nn(C)c2nc(NNC(=O)Nc3nc4c(Cl)nc(Cl)cc4[nH]3)cc(C(C)C)c12`: in assay [3], the IC50 is more than 1000 nM.

Take `COc1cc(NC(=O)NC(=O)c2cc(C(F)(F)F)c3c(C)nn(C)c3n2)cc(Cl)n1`: in assay [3], the IC50 is more than 1000 nM.

For the molecule `COc1cc(NC(=O)NC(=O)c2cc(C(F)(F)F)c3c(C)n[nH]c3n2)cc(Cl)n1`, the IC50 in assay [3] was more than 1000 nM.

`Cc1nn(C)c2nc(NNC(=O)Nc3cc(Cl)nc(OC(C)C)c3)cc(C(C)C)c12`: the IC50 in assay [3] is 29.1 nM; in assay [1], more than 1000 nM; in assay [2], more than 1000 nM; in assay [4], more than 1000 nM; in assay [5] it was more than 1000 nM.

Regarding `COc1cc(-c2nnc(-c3cc(C(C)C)c4c(C)nn(C)c4n3)[nH]2)cc(Cl)n1`, in assay [3], the IC50 is more than 1000 nM.
